The test system of data set [1] is PDE5. Further details: method as in PMID 18778098. Conditions: cited from earlier work.
Another data set concerns Hep3B cells. Put plainly: Cytotoxicity, MTT assay. Type of data set: cell-based. Conditions: 200 µM, 24 h. As to the method: Figure S19. NOESY spectrum of 2-(2-hydroxyphenyl)oxetan-3-ol (7).
Figure S20. Cytotoxicity of CO hydrosol and its compounds on Hep3B. […]
trans-PO: trans-phenyloxetan-3-ol; cis-PO: cis-phenyloxetan-3-ol; trans-CA: trans- […]
The Hep3B cells were maintained in Dulbecco’s Modified Eagle medium (DMEM; HyClone,Washington, DC, US), supplemented with 10% fetal bovine sera(FBS; Gibco,Waltham, MA, US), 1 mM sodium pyruvate (Corning), and 1% […]
penicillin/streptomycin (Corning) at 37 ℃ in a humidified atmosphere of 5% CO2. Cell viability was measured using a colorimetric MTT assay. Cells were seeded in 96-well plates at a density of 1 × 1 0 4 cells/well. Stock solutions of samples in dimethyl sulfoxide (DMSO; Sigma-Aldrich) were stored in the dark at 4 ℃. Appropriate dilutions were prepared on the day of the experiments. […]
exceed 0.25% (v/v). After 24 h incubated with samples, the culture medium was removed and replaced with fresh medium containing 0.5 mg/mL of MTT (Sigma-Aldrich) for 1 h. The supernatant was removed and added 100 µL DMSO to dissolve formazan. Absorption at 570 nm for each well was measured using an ELISA microplate reader (BioTeck Instruments, Winooski, VT, USA).

For data set [2], the target named is T1, PDE5 (Homo sapiens, UniProt O76074).
T1 construct: purchased BPS Bioscience
Put plainly: PDE5 inhibition assay (PDE5A1 assay kit). Type of data set: biochemical. As to the method:
The PDE5 assay was determined by using a PDE5A1 assay kit (BPS Bioscience, San Diego, CA, USA). The experiments were conducted following the manufacturer’s protocol. Sildenafil (10 nM) was used as a positive control.

For the molecule `COc1ccc(-c2oc3c(CC=C(C)C)c(O[C@@H]4O[C@H](CO)[C@@H](O)[C@H](O)[C@H]4O)cc(O)c3c(=O)c2O[C@@H]2O[C@@H](C)[C@H](O)[C@@H](O)[C@H]2O)cc1` [icariin], the 50% inhibitory concentration (IC50) with PDE5 [1] was roughly 5.9 µM.

Consider `O[C@@H]1CO[C@H]1c1ccccc1` (relative stereo) [trans-phenyloxetan-3-ol], for which, in the data set on Hep3B cells, the cytotoxicity result was “no cytotoxicity”. On PDE5 [2], this molecule registered a 50% inhibitory concentration (IC50) of 4.37 µM. At PDE5 [2] (read-out: PDE5 inhibition rate), the inhibition at 0.1 µM was 11.5%, the inhibition at 0.5 µM was found to be 26.1%, the inhibition at 1 µM is 36.7% and the inhibition at 10 µM turned out to be 58.4%. The inhibition at 20 µM at PDE5 [2] (20 µM, read-out: PDE5 inhibition rate) worked out at 65.3%.

For `O=C/C=C/c1ccccc1` [trans-cinnamaldehyde], the PDE5 inhibition rate result in the data set on PDE5 [1] (10 µM) was “less than 20%”.

As for `O[C@H]1CO[C@H]1c1ccccc1` (relative stereo) [cis-phenyloxetan-3-ol], the cytotoxicity result with Hep3B cells is “no cytotoxicity”. The same molecule returned an IC50 at PDE5 [2] of 3.4 µM. In addition, on PDE5 [2] (read-out: PDE5 inhibition rate), the inhibition at 0.1 µM was found to be 10.8%, the inhibition at 0.5 µM is 27.1%, the inhibition at 1 µM worked out at 38.1% and the inhibition at 10 µM was found to be 61.9%. At PDE5 [2] (5 µM, read-out: PDE5 inhibition rate), the inhibition at 5 µM was found to be 52.1%.

Values taken from paper PMC11174926, “Composition Characterization of Cinnamomum osmophloeum Kanehira Hydrosol and Its Enhanced Effects on Erectile Function” (Plants, 2024).
